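A five-concentration, 48-hour dose response in 96-well plates underlies each endpoint, interpolated linearly between surrounding concentrations. GI50 is the concentration that inhibits growth by half. TGI marks complete inhibition of growth.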
Each molecule was assayed on A549 NSCLC (assay: NCI anticancer screen, dose series, 48 h).

Compound | GI50 | TGI
O=S(=O)(NC1=NCCN1C(=S)SN1CCn2c1nsc2=S)c1ccc(OC(F)(F)F)cc1 | 21.1 µM | 54.3 µM
CCOC(=O)N1CCC2(CC1)C[C@](C)(C(C)=O)C(C)O2 (some centres not stated) | – | > 100 µM
COc1cc2c(cc1OC)C(c1ccccc1CCCCl)=NCC2 | – | > 100 µM
COc1cc([C@@H]2c3cc4c(cc3[C@@H](Nc3ccc([N+](=O)[O-])cc3C(=O)c3ccccc3)[C@H]3COC(=O)[C@H]23)OCO4)cc(OC)c1OC | – | > 100 µM
NC(Cc1c[nH]c2c(O)cccc12)C(=O)O (configuration not stated) | > 100 µM | > 100 µM

The molecules below were run on SNB-19 CNS (assay: NCI anticancer screen, dose series, 48 h).

Compound | GI50 | TGI
O=S(=O)(NC1=NCCN1C(=S)SN1CCn2c1nsc2=S)c1ccc(OC(F)(F)F)cc1 | 16.8 µM | 32.1 µM
CCOC(=O)N1CCC2(CC1)C[C@](C)(C(C)=O)C(C)O2 (some centres not stated) | – | > 100 µM
COc1cc2c(cc1OC)C(c1ccccc1CCCCl)=NCC2 | – | > 100 µM
COc1cc([C@@H]2c3cc4c(cc3[C@@H](Nc3ccc([N+](=O)[O-])cc3C(=O)c3ccccc3)[C@H]3COC(=O)[C@H]23)OCO4)cc(OC)c1OC | – | > 100 µM
NC(Cc1c[nH]c2c(O)cccc12)C(=O)O (configuration not stated) | > 100 µM | > 100 µM

The molecules below were run on COLO 205 colon (assay: NCI anticancer screen, dose series, 48 h).

Compound | GI50 | TGI
O=S(=O)(NC1=NCCN1C(=S)SN1CCn2c1nsc2=S)c1ccc(OC(F)(F)F)cc1 | 10.7 µM | 28.2 µM
CCOC(=O)N1CCC2(CC1)C[C@](C)(C(C)=O)C(C)O2 (some centres not stated) | – | > 100 µM
COc1cc2c(cc1OC)C(c1ccccc1CCCCl)=NCC2 | – | > 100 µM
NC(Cc1c[nH]c2c(O)cccc12)C(=O)O (configuration not stated) | > 100 µM | > 100 µM

What follows are molecules tested on MDA-MB-231 breast (assay: NCI anticancer screen, dose series, 48 h).

Compound | GI50 | TGI
O=S(=O)(NC1=NCCN1C(=S)SN1CCn2c1nsc2=S)c1ccc(OC(F)(F)F)cc1 | 15.1 µM | 36.1 µM
CCOC(=O)N1CCC2(CC1)C[C@](C)(C(C)=O)C(C)O2 (some centres not stated) | – | > 100 µM
COc1cc2c(cc1OC)C(c1ccccc1CCCCl)=NCC2 | – | > 100 µM
NC(Cc1c[nH]c2c(O)cccc12)C(=O)O (configuration not stated) | > 100 µM | > 100 µM

Each molecule was assayed on SF-539 CNS (assay: NCI anticancer screen, dose series, 48 h).

Compound | GI50 | TGI
O=S(=O)(NC1=NCCN1C(=S)SN1CCn2c1nsc2=S)c1ccc(OC(F)(F)F)cc1 | 1.31 µM | 12.1 µM
CCOC(=O)N1CCC2(CC1)C[C@](C)(C(C)=O)C(C)O2 (some centres not stated) | – | > 100 µM
COc1cc2c(cc1OC)C(c1ccccc1CCCCl)=NCC2 | – | > 100 µM
COc1cc([C@@H]2c3cc4c(cc3[C@@H](Nc3ccc([N+](=O)[O-])cc3C(=O)c3ccccc3)[C@H]3COC(=O)[C@H]23)OCO4)cc(OC)c1OC | – | 0.502 µM
NC(Cc1c[nH]c2c(O)cccc12)C(=O)O (configuration not stated) | > 100 µM | > 100 µM

What follows are molecules tested on NCI-H226 lung (assay: NCI anticancer screen, dose series, 48 h).

Compound | GI50 | TGI
O=S(=O)(NC1=NCCN1C(=S)SN1CCn2c1nsc2=S)c1ccc(OC(F)(F)F)cc1 | 18 µM | 38.7 µM
CCOC(=O)N1CCC2(CC1)C[C@](C)(C(C)=O)C(C)O2 (some centres not stated) | – | > 100 µM
COc1cc2c(cc1OC)C(c1ccccc1CCCCl)=NCC2 | – | > 100 µM
COc1cc([C@@H]2c3cc4c(cc3[C@@H](Nc3ccc([N+](=O)[O-])cc3C(=O)c3ccccc3)[C@H]3COC(=O)[C@H]23)OCO4)cc(OC)c1OC | – | > 100 µM
NC(Cc1c[nH]c2c(O)cccc12)C(=O)O (configuration not stated) | > 100 µM | > 100 µM

These molecules were tested on A498 renal (assay: NCI anticancer screen, dose series, 48 h).

Compound | GI50 | TGI
C=C(C)[C@@H]1CCC[C@]2(COS(=O)(=O)c3ccc(C)cc3)CC[C@]3(C)[C@@H](CC[C@@H]4[C@@]5(C)CCCNC(C)(C)[C@@H]5CC[C@]43C)[C@@H]12 | 1.63 µM | 3.14 µM
O=S(=O)(NC1=NCCN1C(=S)SN1CCn2c1nsc2=S)c1ccc(OC(F)(F)F)cc1 | 15.9 µM | 29.7 µM
CCOC(=O)N1CCC2(CC1)C[C@](C)(C(C)=O)C(C)O2 (some centres not stated) | – | > 100 µM
COc1cc2c(cc1OC)C(c1ccccc1CCCCl)=NCC2 | – | > 100 µM
COc1cc([C@@H]2c3cc4c(cc3[C@@H](Nc3ccc([N+](=O)[O-])cc3C(=O)c3ccccc3)[C@H]3COC(=O)[C@H]23)OCO4)cc(OC)c1OC | – | > 100 µM

From PubChem BioAssay (NCI)
